From patent US8748417B2, “Amino-pyrrolidine-azetidine diamides as monoacylglycerol lipase inhibitors” (Janssen Pharmaceutica, NV, priority 2010, dated 2014)
Changes are numbered by the printed parent chain. pIC50, pKd: −log10 of the molar value.

How the values were obtained:
[1] = target: T1, purified wild type MGL (wt-MGLL 6H-11-313) (Homo sapiens, UniProt Q99685); experiment: MGL enzyme activity assay (4MU-B cleavage), wild type MGL; type: biochemical; settings: wild type MGL 5 nM, 4MU-B 10 μM, 37° C.; read-out: MGL wild type inh IC50
T1 construct: purified wild type MGL (wt-MGLL 6H-11-313)
T1 sequence (Q99685 1-303): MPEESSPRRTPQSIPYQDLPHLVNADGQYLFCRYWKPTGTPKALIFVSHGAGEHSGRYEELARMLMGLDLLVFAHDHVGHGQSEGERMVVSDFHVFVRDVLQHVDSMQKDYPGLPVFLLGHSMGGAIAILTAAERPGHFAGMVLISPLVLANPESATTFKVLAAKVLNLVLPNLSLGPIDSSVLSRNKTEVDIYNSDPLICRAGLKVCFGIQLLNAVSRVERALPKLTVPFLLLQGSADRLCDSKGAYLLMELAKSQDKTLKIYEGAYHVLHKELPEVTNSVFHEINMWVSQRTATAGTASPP
Outline: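 Enzyme in 20 mM PIPES pH 7.0, 150 mM NaCl, 0.001% Tween 20 with 4MU-B at 10 μM final and MGL at 5 nM final; compounds 17 to 0.0003 μM final, enzyme added last. Fluorescence (ex 335/em 440 nm) followed at 37° C for 5 min; IC50 from fit of fractional activity versus inhibitor concentration.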

[2] = tested on: MGL (rat brain homogenate); experiment: 2-AG accumulation assay in rat brain homogenate; type: biochemical; settings: compound 1 μM, percent of vehicle 2-AG accumulation
Outline: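 Rat brain homogenate was incubated with compound for 15 min at 37° C., after which CaCl2 was added to a final concentration of 10 mM and incubation continued for 15 min at 37° C. in 5 mL total. Reactions were stopped with 6 mL of 2:1 chloroform/methanol, and 2-AG accumulated in the organic phase was quantified by HPLC/MS.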

[3] = tested on: CFA-induced paw radiant heat hypersensitivity; experiment: CFA-induced paw radiant heat hypersensitivity; type: in vivo; settings: po, 5 h; rat, 30 mg/kg p.o., 20% HPβCD, last time point 300 min, group mean values; read-out: Method 1: peak % reversal
Description: Each rat was placed in a test chamber on a warm glass surface and allowed to acclimate for approximately 10 min. A radiant thermal stimulus (beam of light) was focused through the glass onto the plantar surface of each hind paw in turn. The thermal stimulus was automatically shut off by a photoelectric relay when the paw was moved or when the cut-off time was reached (20 sec for radiant heat at ˜5 amps). An initial (baseline) response latency to the thermal stimulus was recorded for each animal prior to the injection of complete Freund's adjuvant (CFA). Twenty-four hours following intraplantar CFA injection, the response latency of the animal to the thermal stimulus was re-evaluated and compared to the animal's baseline response time. […] Immediately following the post-CFA latency assessment, the indicated test compound or vehicle was administered orally. Post-compound treatment withdrawal latency was assessed at fixed time intervals, typically 30, 60, 120, 180, and 300 min. • The percent reversal (% R) of hypersensitivity was calculated in one of two different ways: 1) using group mean values or 2) using individual animal values. More specifically: • Method 1. For all compounds, the % R of hypersensitivity was calculated using the mean value for groups of animals at each time point according to the following formula: % reversal=[(group treatment response−group CFA response)/(group baseline response−group CFA response)]×100 • Results are given for the maximum % reversal observed for each compound at any time point tested. • Method 2. For some compounds, the % R of hypersensitivity was calculated separately for each animal according to the following formula: % reversal=[(individual treatment response−individual CFA response)/(individual baseline response−individual CFA response)]×100. • Results are given as a mean of the maximum % reversal values calculated for each individual animal.

mutant MGL = target: T2, mutant MGL (Homo sapiens, UniProt Q99685, L169S/L176S); experiment: MGL ThermoFluor assay - mutant; type: binding; settings: qNMR-corrected compound concentration; read-out: MGL mutant ThermoFluor qKd
T2 construct: purified mutant MGL (mut-MGLL 11-313 L179S L186S)
T2 sequence (Q99685 1-303 L169S/L176S): T1 sequence (Q99685 1-303) with L169S, L176S
Description: The ThermoFluor (TF) assay is a 384-well plate-based binding assay that measures thermal stability of proteins^1,2. The experiments were carried out using instruments available from Johnson & Johnson Pharmaceutical Research & Development, LLC. TF dye used in all experiments was 1,8-ANS (Invitrogen: A-47). Final TF assay conditions used for MGL studies were 0.07 mg/ml of mutant MGL, 100 μM ANS, 200 mM NaCl, 0.001% Tween-20 in 50 mM PIPES (pH=7.0).
Screening compound plates contained 100% DMSO compound solutions at a single concentration. For follow-up concentration-response studies, compounds were arranged in a pre-dispensed plate (Greiner Bio-one: 781280), wherein compounds were serially diluted in 100% DMSO across 11 columns within a series. Columns 12 and 24 were used as DMSO reference and contained no compound. For both single and multiple compound concentration-response experiments, the compound aliquots (46 nL) were robotically predispensed directly into 384-well black assay plates (Abgene: TF-0384/k) using the Hummingbird liquid handler. Following compound dispension, protein and dye solutions were added to achieve the final assay volume of 3 μL. The assay solutions were overlayed with 1 μL of silicone oil (Fluka, type DC 200: 85411) to prevent evaporation.
Bar-coded assay plates were robotically loaded onto a thermostatically controlled PCR-type thermal block and then heated from 40 to 90° C. degrees at a ramp-rate of 1° C./min for all experiments. Fluorescence was measured by continuous illumination with UV light (Hamamatsu LC6), supplied via fiber optics and filtered through a band-pass filter (380-400 nm; >6 OD cutoff). Fluorescence emission of the entire 384-well plate was detected by measuring light intensity using a CCD camera (Sensys, Roper Scientific) filtered to detect 500±25 nm, resulting in simultaneous and independent readings of all 384 wells. A single image with 20-sec exposure time was collected at each temperature, and the sum of the pixel intensity in a given area of the assay plate was recorded vs temperature and fit to standard equations to yield the Tm^1. • 1. Pantoliano, M. W., Petrella, E. C., Kwasnoski, J. D., Lobanov, V. S., Myslik, J., Graf, E., Carver, T., Asel, E., Springer, B. A., Lane, P., and Salemme, F. R. (2001) J Biomol Screen 6, 429-40. • 2. Matulis, D., Kranz, J. K., Salemme, F. R., and Todd, M. J. (2005) Biochemistry 44, 5258-66.
The Kd values for certain compounds of Formula (I) were determined from a fit of the equation to the concentration-response plot of the fractional activity as a function of […]. For some experiments, quantitative NMR spectroscopy (qNMR) was used to measure concentration of the initial 100% DMSO compound solutions and, using the same fitting method, qKd values were determined.

Row | SMILES | pIC50 [1] | pKd (mutant MGL) | Rat Brain 2AG % VehCntrl (%) @1 μM [2] [%] | inhibition in vivo at 30 mg/kg [3] [%]
1 | O=C(c1ccc2c(ccn2-c2ccc(F)cc2)c1)N1CC(N[C@H]2CCN(C(=O)c3nccs3)C2)C1 [Cpd 159, (3S)-N-(1-{[1-(4-Fluorophenyl)-1H-indol-5-yl]carbonyl}azetidin-3-yl)-1-(1,3-thiazol-2-ylcarbonyl)pyrrolidin-3-amine] | 8.22 |  | 476 | 56.5
2 | Cn1cc(-c2cccc(C(F)(F)F)c2)c2ccc(C(=O)N3CC(N[C@H]4CCN(C(=O)c5nccs5)C4)C3)cc21 [Cpd 162, (3S)-N-[1-({1-Methyl-3-[3-(trifluoromethyl)phenyl]-1H-indol-6-yl}carbonyl)azetidin-3-yl]-1-(1,3-thiazol-2-ylcarbonyl)pyrrolidin-3-amine] | 8.20 |  | 911 | 69.7
3 | O=C(c1ccc2c(-c3cccc(C(F)(F)F)c3)c[nH]c2c1)N1CC(N[C@H]2CCN(C(=O)c3ccccc3)C2)C1 [Cpd 103, (3S)-1-(Phenylcarbonyl)-N-[1-({3-[3-(trifluoromethyl)phenyl]-1H-indol-6-yl}carbonyl)azetidin-3-yl]pyrrolidin-3-amine] | 7.82 |  | 332 | 28
4 | O=C(c1ccc2c(-c3cccc(F)c3)c[nH]c2c1)N1CC(N[C@H]2CCN(C(=O)c3nccs3)C2)C1 [Cpd 202, (3S)-N-(1-{[3-(3-Fluorophenyl)-1H-indol-6-yl]carbonyl}azetidin-3-yl)-1-(1,3-thiazol-2-ylcarbonyl)pyrrolidin-3-amine] | 7.96 | 7.25 | 363 | 
5 | O=C(c1ccc2c(-c3cccc(F)c3)c[nH]c2c1)N1CC(N[C@H]2CCN(C(=O)c3cscn3)C2)C1 [Cpd 203, (3S)-N-(1-{[3-(3-Fluorophenyl)-1H-indol-6-yl]carbonyl}azetidin-3-yl)-1-(1,3-thiazol-4-ylcarbonyl)pyrrolidin-3-amine] | 7.30 | 6.58 | 238 | 
6 | O=C(c1ccc(-c2cccc(C(F)(F)F)c2)cc1)N1CC(N[C@H]2CCN(C(=O)c3cscn3)C2)C1 [Cpd 114, (3S)-1-(1,3-Thiazol-4-ylcarbonyl)-N-(1-{[3′-(trifluoromethyl)biphenyl-4-yl]carbonyl}azetidin-3-yl)pyrrolidin-3-amine] | 7.78 |  | 311 | 25.1
7 | Cn1cc(-c2cccc(F)c2)c2ccc(C(=O)N3CC(N[C@H]4CCN(C(=O)c5nccs5)C4)C3)cc21 [Cpd 205, (3S)-N-(1-{[3-(3-Fluorophenyl)-1-methyl-1H-indol-6-yl]carbonyl}azetidin-3-yl)-1-(1,3-thiazol-2-ylcarbonyl)pyrrolidin-3-amine] | > 8.30 | 7.67 | 446 | 
8 | O=C(c1ccc2c(-c3cccc(C(F)(F)F)c3)c[nH]c2c1)N1CC(N[C@H]2CCN(C(=O)c3nccs3)C2)C1 [Cpd 105, (3S)-1-(1,3-Thiazol-2-ylcarbonyl)-N-[1-({3-[3-(trifluoromethyl)phenyl]-1H-indol-6-yl}carbonyl)azetidin-3-yl]pyrrolidin-3-amine] | 7.74 |  | 812 | 37.2

More lines, main results first:

Row | pIC50 [1] | pKd (mutant MGL) | SMILES | Rat Brain 2AG % VehCntrl (%) @1 μM [2] [%] | inhibition in vivo at 30 mg/kg [3] [%]
9 | 7.09 | 6.91 | Cn1cc(-c2cccc(F)c2)c2ccc(C(=O)N3CC(N[C@H]4CCN(C(=O)c5cscn5)C4)C3)cc21 [Cpd 206, (3S)-N-(1-{[3-(3-Fluorophenyl)-1-methyl-1H-indol-6-yl]carbonyl}azetidin-3-yl)-1-(1,3-thiazol-4-ylcarbonyl)pyrrolidin-3-amine] | 267 | 
10 | 7.02 | 6.34 | O=C(c1nccs1)N1CC[C@H](NC2CN(C(=O)c3cccc4c3CCN4c3ccc(F)cc3)C2)C1 [Cpd 216, (3S)-N-(1-{[1-(4-Fluorophenyl)-2,3-dihydro-1H-indol-4-yl]carbonyl}azetidin-3-yl)-1-(1,3-thiazol-2-ylcarbonyl)pyrrolidin-3-amine] | 260 | 
11 | 7.19 | 7.00 | Cn1cc(-c2cccc(F)c2)c2ccc(C(=O)N3CC(N[C@H]4CCN(C(=O)c5ccccc5)C4)C3)cc21 [Cpd 207, (3S)-N-(1-{[3-(3-Fluorophenyl)-1-methyl-1H-indol-6-yl]carbonyl}azetidin-3-yl)-1-(phenylcarbonyl)pyrrolidin-3-amine] | 238 | 
12 | > 8.30 | 7.05 | Cn1cc(Cc2ccc(F)cc2)c2ccc(C(=O)N3CC(N[C@H]4CCN(C(=O)c5nccs5)C4)C3)cc21 [Cpd 221, (3S)-N-(1-{[3-(4-Fluorobenzyl)-1-methyl-1H-indol-6-yl]carbonyl}azetidin-3-yl)-1-(1,3-thiazol-2-ylcarbonyl)pyrrolidin-3-amine] | 878 | 
13 | 6.97 | 6.28 | O=C(c1nccs1)N1CC[C@H](NC2CN(C(=O)c3cccc4c3ccn4-c3ccc(F)cc3)C2)C1 [Cpd 214, (3S)-N-(1-{[1-(4-Fluorophenyl)-1H-indol-4-yl]carbonyl}azetidin-3-yl)-1-(1,3-thiazol-2-ylcarbonyl)pyrrolidin-3-amine] | 524 | 
